Laboratory results published in patent US20070254911A1, “Tetrahydro-Pyrazolo[3,4-c]Pyridine Cannabinoid Modulators” (priority 2006, published 2007).

Columns and labels:
human CB1 receptor = target: T1, human CB1 receptor (Homo sapiens, UniProt P21554); assay: Binding assay for CB1, radioligand [3H]-CP-55,940 displacement on membranes of transfected SK-N-MC cells; conditions: for IC50: human CB1 in SK-N-MC membranes, [3H]-CP-55,940 0.2 nM, calculated by linear regression, read-out: Cannabinoid CB1 Receptor Binding IC50
T1 construct: expressed in transfected cells; host or cells: SK-N-MC cells, stably transfected with pcDNA3 CB-1 (human); semi-purified membrane pellet
Protocol: (§1) Binding Assay for CB1 or CB2 Agonists or Inverse Agonists
(§2) The human CB1 and CB2 receptors were stably expressed in SK-N-MC cells transfected with pcDNA3 CB-1 (human) or pcDNA3 CB-2 (human). The cells were grown in T-180 cell culture flasks under standard cell culture conditions at 37° C. in a 5% CO2 atmosphere. The cells were harvested by trysinization and homogenized in a homogenization buffer (10 mM Tris, 0.2 mM MgCl2, 5 mM KCl, with protease inhibitors aprotinin, leupeptin, pepstatin A and bacitracin) and centrifuged (2000 g). The supernatant was then centrifuged in 2M sucrose (31,300 g) to produce a semi-purified membrane pellet. The pellet was resuspended in homogenization and stored at −80° C.
(§3) On the day of the assay, the pellet was thawed on ice and diluted in assay buffer (50 mM Tris-HCl, 5 mM MgCl2, 2.5 mM EDTA, 0.5 mg/mL fatty acid free bovine serum albumin, pH 7.5). The diluted membrane pellet was added with buffer, either a test compound or vehicle standard and a the radioligand [H]^3+-CP-55,940 (0.2 nM) to the wells of a 96-well polypropylene plate. Non-specific binding was measured in wells containing WIN 55,212 (10 uM). The plate was covered and incubated for 90 minutes at 30° C. The contents were then aspirated onto a Packard Unifilter GF/C filter bottom plate prewet with 0.5% polyethyleneimine. The wells of the polypropylene plate were rinsed and aspirated seven times with a 0.9% saline-0.5% Tween 20 solution. The Unifilter plate was dried, a scintillation cocktail was added to each well and the counts representing binding were quantitated in a TopCount scintillation counter.
(§4) For compounds tested, an IC50 binding value was obtained from percent inhibition studies in which various test concentrations were used. The binding value (in μM) was calculated by linear regression.
(§5) For compounds without an IC50 binding value, the percent inhibition (%) was obtained at a test concentration of 0.2 μM.

human CB2 receptor = target: T2, human CB2 receptor (Homo sapiens, UniProt P34972); assay: Binding assay for CB2, radioligand [3H]-CP-55,940 displacement on membranes of transfected SK-N-MC cells; conditions: test concentration of 0.2 μM; human CB2 in SK-N-MC membranes; read-out: Cannabinoid CB2 Receptor Binding Inhibition (%)
T2 construct: expressed in transfected cells; host or cells: SK-N-MC cells, stably transfected with pcDNA3 CB-2 (human); semi-purified membrane pellet
Protocol: as §1, §2, §3, §4, §5

T1 sequence (P21554 whole entry): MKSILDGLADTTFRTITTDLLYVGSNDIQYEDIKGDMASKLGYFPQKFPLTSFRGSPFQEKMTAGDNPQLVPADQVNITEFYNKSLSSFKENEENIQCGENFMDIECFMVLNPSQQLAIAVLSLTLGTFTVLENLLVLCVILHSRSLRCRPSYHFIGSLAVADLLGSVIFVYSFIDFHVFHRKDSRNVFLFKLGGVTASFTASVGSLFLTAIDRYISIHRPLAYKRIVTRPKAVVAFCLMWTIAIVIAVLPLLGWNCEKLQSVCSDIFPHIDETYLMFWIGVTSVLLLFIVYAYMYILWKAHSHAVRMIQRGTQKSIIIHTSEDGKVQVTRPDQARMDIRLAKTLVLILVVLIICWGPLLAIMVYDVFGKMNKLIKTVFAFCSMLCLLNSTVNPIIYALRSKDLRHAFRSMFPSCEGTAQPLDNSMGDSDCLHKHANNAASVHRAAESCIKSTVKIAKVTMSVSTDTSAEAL
T2 sequence (P34972 whole entry): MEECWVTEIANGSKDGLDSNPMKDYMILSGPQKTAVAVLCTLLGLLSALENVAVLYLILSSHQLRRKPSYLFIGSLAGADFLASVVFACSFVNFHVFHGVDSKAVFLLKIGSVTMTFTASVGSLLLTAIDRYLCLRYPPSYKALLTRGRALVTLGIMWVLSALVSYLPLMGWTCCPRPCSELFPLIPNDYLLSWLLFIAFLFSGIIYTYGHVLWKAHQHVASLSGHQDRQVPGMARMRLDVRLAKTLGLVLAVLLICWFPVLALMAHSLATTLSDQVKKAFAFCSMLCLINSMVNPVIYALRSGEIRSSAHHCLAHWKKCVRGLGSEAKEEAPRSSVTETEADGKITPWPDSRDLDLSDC

| SMILES | IC50 (human CB1 receptor) [µM] | inhibition at 0.2 µM (human CB2 receptor) [%] | inhibition at 0.2 µM (human CB1 receptor; test concentration of 0.2 μM, for compounds without an IC50 binding value, read-out: Cannabinoid CB1 Receptor Binding percent inhibition) [%] |
| --- | --- | --- | --- |
| CC(NC(=O)c1nn(-c2ccc(Cl)cc2Cl)c2c1CCN(C(=O)OC(C)(C)C)/C2=C/c1ccc(F)cc1)c1ccccn1 (stereo not shown) [Cpd 2, (7E)-1-(2,4-dichloro-phenyl)-7-(4-fluoro-benzylidene)-3-(1-pyridin-2-yl-ethylcarbamoyl)-1,4,5,7-tetrahydro-pyrazolo[3,4-c]pyridine-6-carboxylic acid tert-butyl ester] | 0.048 | 13 | – |
| C[C@@H](NC(=O)c1nn(-c2ccc(Cl)cc2Cl)c2c1CCN(C(=O)OC(C)(C)C)/C2=C/c1ccc(F)cc1)c1ccccc1 [Cpd 1, (7E)-1-(2,4-dichloro-phenyl)-7-(4-fluoro-benzylidene)-3-[(1R)-1-phenyl-ethylcarbamoyl]-1,4,5,7-tetrahydro-pyrazolo[3,4-c]pyridine-6-carboxylic acid tert-butyl ester] | 0.01 | 35 | – |
| COC(=O)N1CCc2c(C(=O)NC(C)c3ccccn3)nn(-c3ccc(Cl)cc3Cl)c2/C1=C\c1ccc(F)cc1 (stereo not shown) [Cpd 5, (7E)-1-(2,4-dichloro-phenyl)-7-(4-fluoro-benzylidene)-3-(1-pyridin-2-yl-ethylcarbamoyl)-1,4,5,7-tetrahydro-pyrazolo[3,4-c]pyridine-6-carboxylic acid methyl ester] | 0.033 | 17 | – |
| CC(C)(C)OC(=O)N1CCc2c(C(=O)NN3CCCCC3)nn(-c3ccc(Cl)cc3Cl)c2/C1=C\c1ccc(F)cc1 [Cpd 3, (7E)-1-(2,4-dichloro-phenyl)-7-(4-fluoro-benzylidene)-3-(piperidin-1-ylcarbamoyl)-1,4,5,7-tetrahydro-pyrazolo[3,4-c]pyridine-6-carboxylic acid tert-butyl ester] | 0.012 | 13 | – |
| CC(C)(C)OC(=O)N1CCc2c(C(=O)N3CCCCC3)nn(-c3ccc(Cl)cc3Cl)c2/C1=C\c1ccc(F)cc1 [Cpd 4, (7E)-1-(2,4-dichloro-phenyl)-7-(4-fluoro-benzylidene)-3-(piperidine-1-carbonyl)-1,4,5,7-tetrahydro-pyrazolo[3,4-c]pyridine-6-carboxylic acid tert-butyl ester] | – | 18 | 39 |
